Test systems include A498; A549; HCT-15; HL-60; Hs-578T; IGROV-1; M14; MCF7; OVCAR-3; RPMI-8226; SF-268; SF-539; SK-MEL-28; SNB-75; SR; TK-10; UACC-257; UACC-62; UO-31.
What all share (test): growth of human tumour cells (NCI), 48 h

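Briefly, cells in 96-well plates were exposed to five compound concentrations for 48 h, and endpoints were estimated by linear interpolation. Here, GI50 denotes the concentration required for 50% inhibition of growth.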 Active and inactive are the calls of the source. Rule as the data show it: active = GI50 up to about 1.1 µM and inactive = higher. Bounds are passed on as bounds.

The source of these data is ChEMBL document CHEMBL1201862, “PubChem BioAssay data set” (2004).

For `O=c1c2cccnc2[nH]c2ccc3[nH]ncc3c12`, the GI50 with A498 is 8.49 µM (inactive); in the assay on A549, > 10 µM (inactive); with HCT-15 it was 6.18 µM; with HL-60, > 10 µM (inactive); with Hs-578T it was > 10 µM (inactive); in the assay with IGROV-1, 6.11 µM (inactive). The GI50 with M14, with MCF7, with OVCAR-3, in the assay with RPMI-8226, in the assay with SF-268 and with SF-539 was > 10 µM (inactive) each time. For the same compound, the GI50 in the assay on SK-MEL-28, in the assay with SNB-75, in the assay with SR, in the assay with TK-10, in the assay with UACC-257 and in the assay on UACC-62 was > 10 µM (inactive) in each case.

Turning to `N/C(=N\c1ccccc1)c1ccccc1N`, the GI50 is > 100 µM (inactive) with A498; > 100 µM (inactive) in the assay on A549; over 100 µM with HCT-15; 31.4 µM (inactive) in the assay with HL-60; > 100 µM (inactive) with Hs-578T; > 100 µM (inactive) with IGROV-1. The GI50 with M14 is > 100 µM (inactive); in the assay on MCF7, > 100 µM (inactive); in the assay with OVCAR-3 it was > 100 µM (inactive); in the assay on RPMI-8226, > 100 µM (inactive); in the assay with SF-268, > 100 µM (inactive); in the assay with SK-MEL-28, 19.6 µM (inactive). The GI50 with SNB-75 was 80.2 µM (inactive); with SR it was > 100 µM (inactive); in the assay with TK-10 it was > 100 µM (inactive); with UACC-257, > 100 µM (inactive); in the assay with UACC-62, > 100 µM (inactive); in the assay with UO-31, > 100 µM (inactive).

Regarding `C[N+](C)(N)Cc1nc(-c2ccc(Cl)cc2)no1`, the GI50 was 70 µM (inactive) in the assay on A498; > 100 µM (inactive) with A549; over 100 µM in the assay on HCT-15; > 100 µM (inactive) in the assay on HL-60; > 100 µM (inactive) in the assay on Hs-578T; > 100 µM (inactive) in the assay on IGROV-1. For the same compound, the GI50 in the assay on M14 is > 100 µM (inactive); with MCF7, > 100 µM (inactive); in the assay on OVCAR-3, > 100 µM (inactive); with RPMI-8226, 52.8 µM (inactive); in the assay with SF-539, > 100 µM (inactive); with SK-MEL-28 it was > 100 µM (inactive). The GI50 in the assay with SNB-75 was > 100 µM (inactive); in the assay with SR, 26.8 µM (inactive); with TK-10, > 100 µM (inactive); in the assay with UACC-257, > 100 µM (inactive); in the assay on UACC-62 it was > 100 µM (inactive).

For the compound `CCC(=O)C1(c2ccccc2)CCN(C)CC1`, the GI50 in the assay with A498 is > 100 µM (inactive); in the assay with A549 it was > 100 µM (inactive); with HCT-15 it was over 100 µM; in the assay on HL-60 it was > 100 µM (inactive); in the assay on Hs-578T, > 100 µM (inactive); in the assay on IGROV-1, > 100 µM (inactive). Further, the GI50 with M14, in the assay on MCF7, in the assay on RPMI-8226, in the assay with SF-268, in the assay on SK-MEL-28 and in the assay on SNB-75 was > 100 µM (inactive) throughout. The GI50 in the assay with SR, in the assay on TK-10, with UACC-257 and with UO-31 was > 100 µM (inactive) each time.

Regarding `CCCCCCCCCCCCCCCCCCOCC(CO[PH](=O)O)OCCCCCCCCCCCCCCCCCC` (stereo not drawn), the GI50 with A498 was > 50 µM (inactive); with A549, > 50 µM (inactive); in the assay with HCT-15, over 50 µM; in the assay on HL-60, > 50 µM (inactive); with Hs-578T, > 50 µM (inactive); with IGROV-1 it was > 50 µM (inactive). For the same compound, the GI50 in the assay on M14, in the assay with MCF7, with OVCAR-3, in the assay on RPMI-8226, with SF-268 and in the assay on SF-539 was > 50 µM (inactive) each time. Also, the GI50 in the assay with SK-MEL-28, with SNB-75, with SR, in the assay on TK-10 and in the assay with UACC-257 was > 50 µM (inactive) throughout.

On to `CCOC(=O)/C1=C(\C)N(Cc2ccccc2)C(=O)c2ccccc2C(=O)c2c(OC(C)=O)ccc(OC(C)=O)c21`, for which the GI50 was > 100 µM (inactive) in the assay on A498; 36.4 µM (inactive) in the assay with A549; 69.3 µM in the assay with HCT-15; 29.9 µM (inactive) in the assay with HL-60; 33.5 µM (inactive) with Hs-578T; 21.9 µM (inactive) in the assay with IGROV-1. Moreover, the GI50 in the assay on MCF7 was 21.1 µM (inactive); in the assay on OVCAR-3, 23.1 µM (inactive); in the assay on RPMI-8226, 18.9 µM (inactive); in the assay with SF-268, 43.6 µM (inactive); with SF-539 it was > 100 µM (inactive); in the assay with SK-MEL-28, > 100 µM (inactive). Also, the GI50 was > 100 µM (inactive) with SNB-75; 20.5 µM (inactive) in the assay with SR; 58.3 µM (inactive) in the assay with TK-10; 61.9 µM (inactive) with UACC-257; 53.2 µM (inactive) with UACC-62; > 100 µM (inactive) in the assay on UO-31.

Regarding `O=c1c2ccccc2oc2c1ccc1ncccc12`, the GI50 is 5.01 µM (inactive) in the assay on A498; 5.4 µM (inactive) with A549; 11.9 µM in the assay with HCT-15; 9.35 µM (inactive) in the assay on HL-60; 11.9 µM (inactive) in the assay on Hs-578T; 11 µM (inactive) with IGROV-1. The GI50 was 8.55 µM (inactive) in the assay with MCF7; 18 µM (inactive) with OVCAR-3; 15.4 µM (inactive) in the assay with RPMI-8226; 17.2 µM (inactive) in the assay on SF-268; 19.6 µM (inactive) in the assay with SF-539; 23 µM (inactive) with SK-MEL-28. Also, the GI50 was 21.3 µM (inactive) with SNB-75; 8.87 µM (inactive) in the assay on SR; 6.73 µM (inactive) in the assay with TK-10; 20.7 µM (inactive) in the assay with UACC-257; 11 µM (inactive) with UACC-62; 5.93 µM (inactive) with UO-31.

Turning to `CCCCCCCCCCCCCC1=C(O)C(=O)C(CC2=C(O)C(=O)C(CCCCCCCCCCCCC)=C(O)C2=O)=C(O)C1=O`, the GI50 is 90.4 µM (inactive) in the assay with A498; > 100 µM (inactive) in the assay with A549; 32.8 µM (inactive) with HL-60; 36 µM (inactive) in the assay with Hs-578T; > 100 µM (inactive) with IGROV-1; > 100 µM (inactive) in the assay on M14. Moreover, the GI50 in the assay with MCF7 was > 100 µM (inactive); with OVCAR-3 it was > 100 µM (inactive); in the assay on SF-268, 46.3 µM (inactive); in the assay on SF-539 it was > 100 µM (inactive); in the assay with SK-MEL-28 it was > 100 µM (inactive); in the assay with SNB-75, 22.3 µM (inactive). In addition, the GI50 was 54.1 µM (inactive) in the assay on SR; 61.4 µM (inactive) in the assay with TK-10; > 100 µM (inactive) with UACC-257; > 100 µM (inactive) in the assay on UACC-62; > 100 µM (inactive) in the assay on UO-31.

On to `CN(C)CCCNC(=O)N/N=C/c1ccc([N+](=O)[O-])cc1`, for which the GI50 was 66.4 µM (inactive) in the assay on A498; > 100 µM (inactive) with A549; over 100 µM with HCT-15; > 100 µM (inactive) with HL-60; 46.7 µM (inactive) in the assay with Hs-578T; > 100 µM (inactive) in the assay with IGROV-1. In addition, the GI50 was > 100 µM (inactive) with M14; 53.1 µM (inactive) in the assay on MCF7; > 100 µM (inactive) in the assay with OVCAR-3; > 100 µM (inactive) in the assay on SF-268; 82.2 µM (inactive) with SF-539; > 100 µM (inactive) in the assay with SK-MEL-28. The GI50 in the assay on SNB-75 is 25.4 µM (inactive); in the assay with SR it was > 100 µM (inactive); in the assay on TK-10 it was > 100 µM (inactive); with UACC-257 it was > 100 µM (inactive); in the assay with UACC-62 it was > 100 µM (inactive); with UO-31, > 100 µM (inactive).

Regarding `COC(=O)c1cccc(C)c1C1CN=NC12Cc1cc(C)cc(C)c1C2=O` (stereo not drawn), the GI50 is 51.5 µM (inactive) with A498; 33.5 µM (inactive) in the assay on A549; 51.1 µM in the assay with HCT-15; 17.9 µM (inactive) in the assay on HL-60; 47 µM (inactive) in the assay on Hs-578T; 52.5 µM (inactive) with IGROV-1. The GI50 with M14 was 34.8 µM (inactive); in the assay with MCF7, 40.4 µM (inactive); with OVCAR-3, 47.1 µM (inactive); in the assay on RPMI-8226, 33.5 µM (inactive); with SF-268, 39.8 µM (inactive); in the assay on SF-539, 56.4 µM (inactive). For the same compound, the GI50 with SK-MEL-28 is 60.4 µM (inactive); in the assay with SNB-75, 24.9 µM (inactive); in the assay on SR it was 39 µM (inactive); in the assay with TK-10, > 100 µM (inactive); with UACC-257, > 100 µM (inactive); in the assay with UO-31 it was 55.1 µM (inactive).

As for `Cc1ccc(C(=N)c2ccccc2Cc2cccc3ccccc23)c2ccccc12`, the GI50 with A498 was > 100 µM (inactive); in the assay on A549, 54.3 µM (inactive); with HCT-15, 40.6 µM; in the assay with HL-60 it was 44.1 µM (inactive); with Hs-578T, > 100 µM (inactive); in the assay with IGROV-1 it was > 100 µM (inactive). In addition, the GI50 in the assay with M14 was 32.3 µM (inactive); with MCF7 it was 42.6 µM (inactive); in the assay on OVCAR-3 it was 79.1 µM (inactive); with SF-268, > 100 µM (inactive); in the assay with SF-539, > 100 µM (inactive); in the assay with SK-MEL-28 it was > 100 µM (inactive). Also, the GI50 was > 100 µM (inactive) in the assay with SNB-75; 41.6 µM (inactive) with SR; > 100 µM (inactive) with TK-10; 33.1 µM (inactive) in the assay on UACC-257; 99.1 µM (inactive) in the assay with UACC-62; 44.8 µM (inactive) with UO-31.
